Among the data in BindingDB's records for doi:10.1002/cbic.200300842 (University of Georgia, 2004) are Ki values, retold here.

pKi: −log10 of the molar value. Where “and” joins values, the source holds several entries; their conditions need not be identical. Equal values may be shown once.

This test deals with T1, Alpha-mannosidase 2 (Homo sapiens, UniProt Q16706).
T1 sequence (Q16706 whole entry): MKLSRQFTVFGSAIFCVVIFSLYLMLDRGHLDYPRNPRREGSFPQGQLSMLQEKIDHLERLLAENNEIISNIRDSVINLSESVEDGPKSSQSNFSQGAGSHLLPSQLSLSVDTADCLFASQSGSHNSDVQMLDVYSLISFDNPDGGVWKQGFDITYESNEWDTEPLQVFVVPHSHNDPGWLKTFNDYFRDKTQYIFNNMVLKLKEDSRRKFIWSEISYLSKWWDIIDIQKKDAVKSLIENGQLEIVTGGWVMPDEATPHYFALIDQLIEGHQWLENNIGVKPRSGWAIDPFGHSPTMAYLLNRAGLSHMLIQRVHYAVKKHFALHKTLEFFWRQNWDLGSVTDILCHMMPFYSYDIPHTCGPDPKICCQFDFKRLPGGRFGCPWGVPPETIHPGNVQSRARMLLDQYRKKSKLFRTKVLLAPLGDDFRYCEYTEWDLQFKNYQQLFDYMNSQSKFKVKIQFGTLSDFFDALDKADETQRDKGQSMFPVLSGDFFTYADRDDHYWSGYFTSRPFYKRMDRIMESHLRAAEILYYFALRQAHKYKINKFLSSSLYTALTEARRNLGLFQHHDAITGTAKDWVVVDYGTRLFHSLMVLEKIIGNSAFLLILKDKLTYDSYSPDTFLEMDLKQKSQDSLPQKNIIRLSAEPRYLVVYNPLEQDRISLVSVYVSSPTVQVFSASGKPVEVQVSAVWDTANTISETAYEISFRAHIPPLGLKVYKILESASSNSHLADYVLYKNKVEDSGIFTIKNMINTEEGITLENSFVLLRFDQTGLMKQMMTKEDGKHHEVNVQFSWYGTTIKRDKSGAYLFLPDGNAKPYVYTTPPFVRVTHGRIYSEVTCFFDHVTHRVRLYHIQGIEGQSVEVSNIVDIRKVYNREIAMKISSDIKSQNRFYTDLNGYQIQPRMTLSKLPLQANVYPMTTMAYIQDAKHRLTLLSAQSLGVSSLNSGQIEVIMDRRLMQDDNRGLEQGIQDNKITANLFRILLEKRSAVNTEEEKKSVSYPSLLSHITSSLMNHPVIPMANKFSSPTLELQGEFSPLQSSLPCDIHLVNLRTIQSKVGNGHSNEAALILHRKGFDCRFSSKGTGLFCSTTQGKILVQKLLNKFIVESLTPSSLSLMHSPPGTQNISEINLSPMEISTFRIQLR
The settings on record: pH 5.6; 37 °C.

A word on the pKi: it is the Ki on a negative log10 scale, so that one unit is a factor of ten. As to `CS[C@H]1[C@H](O)[C@H](O)[C@H](O)[C@@H]1NCc1ccc(F)cc1` [Benzylation of mannostatin A, 1c], the pKi is 6.28 and 6.77. To `CS[C@H]1[C@H](O)[C@H](O)[C@H](O)[C@@H]1NCc1ccc(Cl)cc1` [Benzylation of mannostatin A, 1d] belongs 6.04 and 7.00.

With `COc1ccc(CN[C@H]2[C@@H](O)[C@@H](O)[C@@H](O)[C@@H]2SC)cc1` [Benzylation of mannostatin A, 1f], the pKi is 6.28 and 7.00.

Take `CS[C@@H]1[C@@H](N)[C@@H](O)[C@@H](O)[C@H]1O` [Mannostatin A, 1]: the pKi was 6.68 and 7.05. To `N[C@H]1[C@@H](O)[C@@H](O)[C@@H](O)[C@H]1O` [Mannostatin analogue, 4b] belongs 4.30 and 5.18.
